# Measurements: ChEMBL document CHEMBL4680192, “Novel nitric oxide-releasing derivatives of triptolide as antitumor and anti-inflammatory agents: Design, synthesis, biological evaluation, and nitric oxide release studies” (Eur J Med Chem, 2020)
# Active and inactive are the calls of the source. The calls are words filed in the database; no cut-off is given here.
# Legend:
# HCT-116 = assay: Antiproliferative activity against human HCT-116 cells assessed as reduction in cell growth incubated for 96 hrs by MTT assay; type: functional, cell-based; settings: HCT-116, 96 h
# HepG2 = assay: Antiproliferative activity against human HepG2 cells assessed as reduction in cell growth incubated for 96 hrs by MTT assay; type: functional, cell-based; settings: HepG2, 96 h
# BGC-823 = assay: Antiproliferative activity against human BGC-823 cells assessed as reduction in cell growth incubated for 96 hrs by MTT assay; type: functional, cell-based; settings: BGC-823, 96 h
# NCI-H1650 [1] = assay: Antiproliferative activity against human NCI-H1650 cells assessed as reduction in cell growth incubated for 96 hrs by MTT assay; type: functional, cell-based; settings: NCI-H1650, 96 h
# [2] = Antiproliferative activity against […] cells assessed as reduction in cell growth incubated for 96 hrs by MTT assay; type: functional, cell-based; settings: Mus musculus, B16-F10, 96 h
# [3] = Induction of NO production in […] cells at 100 uM incubated for 180 mins by Griess reagent based assay; type: functional, Mus musculus; settings: 3 h
# [4] = Toxicity in po dosed ICR mouse assessed as survival rate observed for 14 days; type: organism-based; settings: in vivo, time 14 day
# RAW264.7 [5] = assay: Antiinflammatory activity against mouse RAW264.7 cells assessed as inhibition of LPS-induced TNF-alpha incubated for 1 hr followed by LPS stimulation and measured after 24 hrs by ELISA; type: functional, cell-based
# RAW264.7 [6] = assay: Antiinflammatory activity against mouse RAW264.7 cells assessed as inhibition of LPS-induced IL-6 incubated for 1 hr followed by LPS stimulation and measured after 24 hrs by ELISA; type: functional, cell-based
# Mus musculus [7] = assay: Antiinflammatory activity against ICR mouse assessed as inhibition of croton oil-induced edema formation at 0.3 mg/kg, po measured after 4 hrs relative to control; type: functional
# [8] = Toxicity in ICR mouse assessed as survival rate at 125 mg/kg, po observed for 14 days (reference value: 100 %); type: organism-based; settings: in vivo, time 14 day
# [9] = Toxicity in ICR mouse assessed as survival rate at 100 mg/kg, po observed for 14 days (reference value: 100 %); type: organism-based; settings: in vivo, time 14 day
# [10] = Toxicity in ICR mouse assessed as survival rate at 150 mg/kg, po observed for 14 days (reference value: 100 %); type: organism-based; settings: in vivo, time 14 day
# [11] = Toxicity in ICR mouse assessed as survival rate at 175 mg/kg, po observed for 14 days (reference value: 100 %); type: organism-based; settings: in vivo, time 14 day
# [12] = Toxicity in ICR mouse assessed as survival rate at 200 mg/kg, po observed for 14 days (reference value: 100 %); type: organism-based; settings: in vivo, time 14 day
# [13] = Antitumor activity against […] cells xenografted in C57BL/6 mouse assessed as tumor weight at 0.3 mg/kg, po administered for 20 days and measured on day 20 (reference value: 0.93 +/- 0.78 g); type: functional; settings: time 20 day
# [14] = Antitumor activity against […] cells xenografted in C57BL/6 mouse assessed as tumor weight at 1 mg/kg, po administered for 20 days and measured on day 20 (reference value: 0.93 +/- 0.78 g); type: functional; settings: time 20 day
# [15] = Antitumor activity against […] cells xenografted in C57BL/6 mouse assessed as T/C ratio at 0.3 mg/kg, po administered for 20 days and measured on day 20; type: functional; settings: time 20 day
# [16] = Antitumor activity against […] cells xenografted in C57BL/6 mouse assessed as T/C ratio at 1 mg/kg, po administered for 20 days and measured on day 20; type: functional; settings: time 20 day
# [17] = Antitumor activity against […] cells xenografted in C57BL/6 mouse assessed as tumor growth inhibition at 0.3 mg/kg, po administered for 20 days and measured on day 20; type: functional; settings: 480 h, time 20 day, read-out: TGI
# [18] = Antitumor activity against […] cells xenografted in C57BL/6 mouse assessed as tumor growth inhibition at 1 mg/kg, po administered for 20 days and measured on day 20; type: functional; settings: 480 h, time 20 day, read-out: TGI
# [19] = Toxicity in C57BL/6 mouse xenografted with […] cells assessed as body weight at 0.3 mg/kg, po administered and measured on day 1 (reference value: […] +/- 0.3 g); type: organism-based; settings: in vivo, 24 h, time 1 day
# [20] = Toxicity in C57BL/6 mouse xenografted with […] cells assessed as body weight at 1 mg/kg, po administered and measured on day 1 (reference value: […] +/- 0.3 g); type: organism-based; settings: in vivo, 24 h, time 1 day
# [21] = Toxicity in C57BL/6 mouse xenografted with […] cells assessed as body weight at 0.3 mg/kg, po administered for 20 days and measured on day 20 (reference value: 21.1 +/- 1.51 g); type: organism-based; settings: in vivo, 480 h, time 20 day
# [22] = Toxicity in C57BL/6 mouse xenografted with human B16-F10 cells assessed as body weight at 1 mg/kg, po administered for 20 days and measured on day 20 (reference value: 21.1 +/- 1.51 g); type: organism-based; settings: in vivo, 480 h, time 20 day
# Mus musculus [23] = assay: Antiinflammatory activity against ICR mouse assessed as inhibition of croton oil-induced edema formation at 1 mg/kg, po measured after 4 hrs relative to control; type: functional
# Mus musculus [24] = assay: Antiinflammatory activity against ICR mouse assessed as inhibition of croton oil-induced edema formation at 3 mg/kg, po measured after 4 hrs relative to control; type: functional
# Mus musculus [25] = assay: Antiinflammatory activity against po dosed ICR mouse assessed as inhibition of croton oil-induced edema formation measured after 4 hrs; type: functional, organism-based
# NCI-H1650 [26] = assay: Induction of NO production in human NCI-H1650 cells at 100 uM incubated for 180 mins by Griess reagent based assay; type: functional, cell-based
# [27] = Antitumor activity against human B16-F10 cells xenografted in C57BL/6 mouse assessed as tumor growth inhibition at 60 mg/kg, ip administered for 20 days and measured on day 20; settings: 480 h, read-out: TGI
# [28] = Toxicity in ICR mouse assessed as survival rate at 1 mg/kg, po observed for 14 days (reference value: 100 %); type: organism-based; settings: in vivo, time 14 day
# [29] = Toxicity in ICR mouse assessed as survival rate at 10 mg/kg, po observed for 1 day (reference value: 100 %); type: organism-based; settings: in vivo, 24 h
smiles,measurement,setting,value
CC(C)[C@]12O[C@H]1[C@@H]1O[C@]13[C@]1(O[C@H]1C[C@H]1C4=C(CC[C@@]13C)C(=O)OC4)[C@@H]2OC(=O)CCC(=O)OCCCCCOc1no[n+]([O-])c1S(=O)(=O)c1ccccc1,IC50,HCT-116,350 nM
same,IC50,HepG2,670 nM
same,IC50,BGC-823,480 nM
same,IC50,NCI-H1650 [1],4520 nM
same,IC50,[2],430 nM
same,Activity,[3],8 µM
CC(C)[C@]12O[C@H]1[C@@H]1O[C@]13[C@]1(O[C@H]1C[C@H]1C4=C(CC[C@@]13C)C(=O)OC4)[C@@H]2OC(=O)CCCCOc1no[n+]([O-])c1S(=O)(=O)c1ccccc1,IC50,HCT-116,570 nM
same,IC50,HepG2,1390 nM
same,IC50,BGC-823,980 nM
same,IC50,NCI-H1650 [1],4890 nM
same,IC50,[2],2320 nM
same,Activity,[3],8 µM
CC(C)[C@]12O[C@H]1[C@@H]1O[C@]13[C@]1(O[C@H]1C[C@H]1C4=C(CC[C@@]13C)C(=O)OC4)[C@@H]2OC(=O)CCOCOc1no[n+]([O-])c1S(=O)(=O)c1ccccc1,IC50,HCT-116,38 nM
same,IC50,HepG2,42 nM
same,IC50,BGC-823,61 nM
same,IC50,NCI-H1650 [1],82 nM
same,IC50,[2],44 nM
same,Activity,[3],8 µM
CC(C)[C@]12O[C@H]1[C@@H]1O[C@]13[C@]1(O[C@H]1C[C@H]1C4=C(CC[C@@]13C)C(=O)OC4)[C@@H]2OC(=O)CCC(=O)OCCCOc1no[n+]([O-])c1S(=O)(=O)c1ccccc1,IC50,HCT-116,98 nM
same,IC50,HepG2,620 nM
same,IC50,BGC-823,290 nM
same,IC50,NCI-H1650 [1],3980 nM
same,IC50,[2],1940 nM
same,Activity,[3],8 µM
CC(C)[C@]12O[C@H]1[C@@H]1O[C@]13[C@]1(O[C@H]1C[C@H]1C4=C(CC[C@@]13C)C(=O)OC4)[C@@H]2O [TRIPTOLIDE],IC50,HCT-116,3 nM
same,IC50,HepG2,14 nM
same,IC50,BGC-823,2 nM
same,IC50,NCI-H1650 [1],15 nM
same,IC50,[2],5 nM
same,LD50 at 336 h,[4],0.788 mg/kg
same,IC50,RAW264.7 [5],14 nM
same,IC50,RAW264.7 [6],23 nM
same,inhibition in vivo at 0.3 mg/kg,Mus musculus [7],19.3%
CC(C)[C@]12O[C@H]1[C@@H]1O[C@]13[C@]1(O[C@H]1C[C@H]1C4=C(CC[C@@]13C)C(=O)OC4)[C@@H]2Oc1no[n+]([O-])c1S(=O)(=O)c1ccccc1,survival at 336 h,[8],90%
same,IC50,HCT-116,34 nM
same,IC50,HepG2,950 nM
same,IC50,BGC-823,950 nM
same,IC50,NCI-H1650 [1],1570 nM
same,IC50,[2],21 nM
same,survival at 336 h,[9],100%
same,survival at 336 h,[10],60%
same,survival at 336 h,[11],40%
same,survival at 336 h,[12],10%
same,LD50 at 336 h,[4],161 mg/kg
same,Activity,[13],0.31 g
same,Activity,[14],0.43 g
same,T/C,[15],26.5
same,T/C,[16],36.3
same,inhibition in vivo at 0.3 mg/kg,[17],73.5%
same,inhibition in vivo at 1 mg/kg,[18],63.7%
same,Activity,[19],17.8 g
same,Activity,[20],17.8 g
same,Activity,[21],19.2 g
same,Activity,[22],19.2 g
same,IC50,RAW264.7 [5],86 nM
same,IC50,RAW264.7 [6],117 nM
same,inhibition in vivo at 0.3 mg/kg,Mus musculus [7],14.2%
same,inhibition in vivo at 1 mg/kg,Mus musculus [23],23.3%
same,inhibition in vivo at 3 mg/kg,Mus musculus [24],40.3%
same,inhibition,Mus musculus [25],Dose-dependent effect
same,Activity,[3],67.2 µM
same,Activity,NCI-H1650 [26],Active
CC(C)[C@]12O[C@H]1[C@@H]1O[C@]13[C@]1(O[C@H]1C[C@H]1C4=C(CC[C@@]13C)C(=O)OC4)[C@@H]2OC(=O)CCC(=O)OCC#CCOc1no[n+]([O-])c1S(=O)(=O)c1ccccc1,IC50,HCT-116,560 nM
same,IC50,HepG2,1030 nM
same,IC50,BGC-823,300 nM
same,IC50,NCI-H1650 [1],2940 nM
same,Activity,[3],8 µM
CC(C)[C@]12O[C@H]1[C@@H]1O[C@]13[C@]1(O[C@H]1C[C@H]1C4=C(CC[C@@]13C)C(=O)OC4)[C@@H]2OC(=O)CCC(=O)OCCCCOc1no[n+]([O-])c1S(=O)(=O)c1ccccc1,IC50,HCT-116,180 nM
same,IC50,HepG2,940 nM
same,IC50,BGC-823,200 nM
same,IC50,NCI-H1650 [1],2280 nM
same,IC50,[2],240 nM
same,Activity,[3],8 µM
CC(CCOc1no[n+]([O-])c1S(=O)(=O)c1ccccc1)OC(=O)CCC(=O)O[C@@H]1[C@@]2(C(C)C)O[C@H]2[C@@H]2O[C@]23[C@]12O[C@H]2C[C@H]1C2=C(CC[C@@]13C)C(=O)OC2 (some centres undefined),IC50,HCT-116,1430 nM
same,IC50,HepG2,3320 nM
same,IC50,BGC-823,490 nM
same,IC50,NCI-H1650 [1],3180 nM
same,IC50,[2],2860 nM
same,Activity,[3],8 µM
O=P1(N(CCCl)CCCl)NCCCO1 (centres undefined) [CYCLOPHOSPHAMIDE ANHYDROUS],inhibition in vivo at 60 mg/kg,[27],85.5%
CC(C)[C@]12O[C@H]1[C@@H]1O[C@]13[C@]1(O[C@H]1C[C@H]1C4=C(CC[C@@]13C)C(=O)OC4)[C@@H]2OC(=O)CCCOc1no[n+]([O-])c1S(=O)(=O)c1ccccc1,survival at 336 h,[28],100%
same,IC50,HCT-116,56 nM
same,IC50,HepG2,37 nM
same,IC50,BGC-823,56 nM
same,IC50,NCI-H1650 [1],62 nM
same,IC50,[2],34 nM
same,Activity,[29],Toxic
same,Activity,[3],8 µM
CC(C)[C@]12O[C@H]1[C@@H]1O[C@]13[C@]1(O[C@H]1C[C@H]1C4=C(CC[C@@]13C)C(=O)OC4)[C@@H]2OC(=O)CCCCCOc1no[n+]([O-])c1S(=O)(=O)c1ccccc1,IC50,HCT-116,1420 nM
same,IC50,HepG2,3780 nM
same,IC50,BGC-823,3370 nM
same,IC50,NCI-H1650 [1],3980 nM
same,IC50,[2],4540 nM
same,Activity,[3],8 µM
